Laboratory results from patent publication US11878012B2, “Compositions and methods for treating traumatic brain injury” (Board of Regents, the University of Texas System, priority 2020, dated 2024).

Legend:
DGGCs [1] = assay: Ca2+ imaging with calcium green-1 in DGGCs of hippocampal slices, whole-cell mode; format: cell-based, mice; conditions: M084 and ML204 together, 10 μm
Procedure: (§1) Hippocampal Slice Preparation. […] Hippocampal slices were maintained in oxygenated ACSF at 30° C. for 60 min and experiments were performed at 25° C.
Ca2^+ Imaging. Concurrent with patch-clamp electrophysiology, neurons in slices were also imaged (Nikon FN-1, 40× water-immersion objective) via the fluorescent Ca^2+-reporter dye calcium green-1. As a hexapotassium salt, the dye (10 μm) was added to the intracellular patch pipette solution and neurons were patched under whole-cell clamp, as described above. Cells were loaded for 10 min before image acquisition. Fluorescence intensity was obtained using a SOLA Light Engine illumination source (Lumencor) with an output of 3.5 W through a 3-mm-diameter liquid light guide through a Nikon ET-GFP filter. Nikon Elements software was used for image acquisition through a QIClick CCD camera (QImaging). Images were acquired with an exposure time of 200 ms every 2 min using a single-channel, 12-bit rate and no binning. The shutter was closed between each acquisition. For each cell, the corrected total cell fluorescence was measured as the integrated density intensity—(cell area*mean background emission). Ca^2+ signals were measured as the change in fluorescence relative to the baseline fluorescence (ΔF/F0). Averages of four images were thresholded at 10%, masked using a highly averaged image of the cell, and encoded with a pseudocolor look-up table. Group cell fluorescence data were averaged in comparison with normalized intensity at each time point.

[2] = test system: pilocarpine-induced seizures; assay: Pilocarpine-induced chemoconvulsant seizure model; format: in vivo, mice; conditions: M084 10 mg/kg 30 min before pilocarpine 280 mg/kg, n=8
Procedure: After administration of scopolamine (1 mg/kg), control mice were pretreated with saline vehicle and then were administered pilocarpine (280 mg/kg) 30 min later.
The muscarinic agonist pilocarpine was used to induce seizures in vivo. Two-month-old mice were injected with scopolamine methylnitrate (1 mg/kg; MP Biomedicals) to block peripheral mAChRs 30 min before administration of pilocarpine hydrochloride (280 mg/kg; Sigma-Aldrich). Drugs were delivered via intraperitoneal injection in 0.9% sterile saline at a total volume equivalent to 1% of the mouse body weight. Control mice were given the same dose of scopolamine followed by vehicle saline 30 min later. […] Peak seizure activity was observed 60 min after pilocarpine delivery with occasional forelimb clonus.

DGGCs [3] = assay: GCaMP6f brain slice Ca2+ imaging of DGGCs after sham or CCI-TBI; format: cell-based, mice
Description: Neuromodulation of TRPC generates robust Ca2+ influx and facilitates neuronal hyperexcitability. […] To assess the post-injury effect of TRPC channel upregulation on neurons, we used Ca2+ imaging in brain slice to measure excitability as a product of intracellular Ca2+ gating by TRPC1/4/5 channels (FIG. 4). […] Transgenic mice with the GCaMP6f transgene were used to detect changes in cellular Ca2+-activated fluorescence. We hypothesized that DGGC activity increases due to muscarinic stimulation with ACh or direct activation of TRPC4-containing channels with EA. Sensitivity was tested by bath perfusion of ACh or EA to the slice for 5 minutes during Ca2+ imaging to quantify peak amplitude of GCaMP6f fluorescence per cell, duration of Ca2+ influx, and the field-frequency of events (FIG. 4).
Brain slice Ca2+ imaging. Transverse slices (300 μm) of hippocampus were cut with a vibratome (Thermo Scientific Microm HM650V) from Cre-CamK2+/GCamp6f+/− mice. […] Hippocampal slices were maintained in oxygenated ACSF at 30° C. for 60 min, and experiments performed at 28° C. […] Neurons were visually identified with a Nikon FN-1 microscope equipped with a 40× water-immersion objective and infrared differential interference contrast. GCaMP6f fluorescence was obtained using a SOLA Light Engine Illumination source (Lumecor) with an output of 3.5W through a 3 mm diameter liquid light guide through a Nikon ET-GFP filter. Nikon Elements software was used for image acquisition through a QIClick CCD camera (Qlmaging) with a Uniblitz Model VMM-D 1 shutter driver. Baseline time series of the DG granule layer were acquired in the presence of bath solution perfusion for 2 min. […] Images were acquired in time series with an exposure time of 200 ms at 2-10 fps at 12-bit rate and no binning. Time-series image stacks were processed with ImageJ. Images were background subtracted using the mean of the 5% lowest pixel values. Ca2+ signal events were quantified for each cell as change in fluorescence divided by the baseline fluorescence (ΔF/FO) after background subtraction. ROI signals were detrended before quantification to account for drift due to gradual photobleaching of the background.

TRPC3 = target: T1, TRPC3 (Homo sapiens, UniProt Q13507); conditions: description; cited from earlier work
T1 sequence (Q13507 1-921): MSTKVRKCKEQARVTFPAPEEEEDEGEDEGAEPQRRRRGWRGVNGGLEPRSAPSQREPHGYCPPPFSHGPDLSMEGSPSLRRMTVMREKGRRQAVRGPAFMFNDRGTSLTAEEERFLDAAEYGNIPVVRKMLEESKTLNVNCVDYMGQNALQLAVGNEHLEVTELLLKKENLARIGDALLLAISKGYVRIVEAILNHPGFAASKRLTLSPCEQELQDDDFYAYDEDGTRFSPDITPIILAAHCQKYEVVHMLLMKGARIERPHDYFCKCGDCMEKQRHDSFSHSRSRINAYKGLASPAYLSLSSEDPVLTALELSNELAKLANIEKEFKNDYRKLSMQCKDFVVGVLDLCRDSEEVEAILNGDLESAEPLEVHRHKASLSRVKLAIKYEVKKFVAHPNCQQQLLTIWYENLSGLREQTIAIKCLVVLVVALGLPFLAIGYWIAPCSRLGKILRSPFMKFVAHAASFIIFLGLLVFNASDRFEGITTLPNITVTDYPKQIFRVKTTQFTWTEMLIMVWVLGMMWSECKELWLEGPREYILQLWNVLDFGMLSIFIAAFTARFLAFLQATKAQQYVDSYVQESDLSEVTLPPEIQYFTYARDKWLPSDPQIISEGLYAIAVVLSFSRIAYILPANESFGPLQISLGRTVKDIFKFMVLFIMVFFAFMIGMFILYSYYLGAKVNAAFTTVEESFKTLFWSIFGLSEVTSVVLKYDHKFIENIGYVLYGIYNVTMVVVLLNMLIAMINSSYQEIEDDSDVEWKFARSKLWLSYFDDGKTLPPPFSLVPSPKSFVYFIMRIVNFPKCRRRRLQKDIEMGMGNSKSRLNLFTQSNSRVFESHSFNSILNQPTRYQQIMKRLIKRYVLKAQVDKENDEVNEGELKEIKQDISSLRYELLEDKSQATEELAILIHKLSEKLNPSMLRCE

DGGCs [4] = assay: Patch-clamp / current-clamp recordings of DGGCs in hippocampal slices (action potentials, AHP, IM amplitude); format: cell-based, mice
Procedure: as §1

[5] = 2015, cited from earlier work
TRPC4/5 channels = conditions: description from literature; cited from earlier work
[6] = TRPC4/5 channels blocked, control or plus 77-LH-28-1 3 μM

For `CCCCNc1nc2ccccc2[nH]1` [M084, N-butyl-1H-benzimidazol-2-amine], the “maximum calcium-green 1 emission on muscarinic stimulation” value (DGGCs [1]) was 1.61±0.21 fold, the “mean maximum Racine seizure stage” value [2] was 1.1±0.5 and the status epilepticus [2] was “not observed in any animal”. For the same compound, the “Ca2+ peak amplitude” value (DGGCs [3]; EA 1 μM + M084 10 μM, ipsilateral DGGCs from TBI mice) was 1.44±0.05 ΔF/F, the “duration of Ca2+ influx” value (DGGCs [3]; M084 10 μM added to EA 1 μM) was “attenuated the duration of influx to baseline levels” and the “effect on TRPC3” value (TRPC3) was “weak inhibitor or antagonist”. The action potential threshold (DGGCs [4]; M084 10 μm only, n=8 cells) was −45.4±1.3 mV, the “action potential firing rate on M1R agonist” value (DGGCs [4]; TRPC4/5 blockade with M084 10 μm, 77-LH-28-1 3 μm) was “did not increase” and the AHP amplitude (DGGCs [4]; [6]) was 13.2 ± 0.7 mV. For the same compound, the AHP area (DGGCs [4]; [6]) was 196.8 ± 13.3 ms* mV, the AHP decay (DGGCs [4]; [6]) was 14.8 ± 0.7 ms and the “membrane potential values (voltage floor), control ACSF vs 77-LH-28-1 3 μm” value (DGGCs [4]; in presence of M084 10 μm) was “no significant differences”. For the same compound, the “brain concentration at time of PTZ challenge” value ([5]; 1 hour after M084 10 mg/kg s.c., inferred from Yang et al.) was “likely within the micromolar range”, the blood-brain barrier crossing ([5]; Yang et al.) was “crosses the blood-brain barrier” and the “effect on TRPC4/5 channels” value (TRPC4/5 channels) was “potent inhibitor or antagonist”.
